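All cell lines were grown in 96-well plates and treated with compound for 48 hours. At the GI50, growth is halved.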 Active and inactive are the calls of the source. Cut-off read from the data, not from the text of the source: active = GI50 up to about 1.1 µM and inactive = higher.
What was measured:
Test in all cases: DTP human tumour cell line panel, 48 h
EKVX = test system: EKVX
UACC-62 = test system: UACC-62
NCI-H23 = test system: NCI-H23
HT-29 = test system: HT-29
UACC-257 = test system: UACC-257
RPMI-8226 = test system: RPMI-8226
Malme-3M = test system: Malme-3M
SNB-19 = test system: SNB-19
OVCAR-3 = test system: OVCAR-3
IGROV-1 = test system: IGROV-1
MOLT-4 = test system: MOLT-4
NCI-H522 = test system: NCI-H522
OVCAR-5 = test system: OVCAR-5
A498 = test system: A498
COLO 205 = test system: COLO 205
SK-MEL-28 = test system: SK-MEL-28
RXF 393 = test system: RXF 393
CCRF-CEM = test system: CCRF-CEM

Measured: GI50

CN(C)C(=O)OC(Cn1cncn1)c1ccc(Cl)cc1Cl (stereo not drawn)
inactive: EKVX > 100 µM | UACC-62 > 100 µM | NCI-H23 > 100 µM | HT-29 > 100 µM | UACC-257 > 100 µM | RPMI-8226 > 100 µM | Malme-3M > 100 µM | SNB-19 > 100 µM | OVCAR-3 > 100 µM | IGROV-1 > 100 µM | MOLT-4 > 100 µM | NCI-H522 53.5 µM | OVCAR-5 > 100 µM | A498 > 100 µM | COLO 205 > 100 µM | SK-MEL-28 > 100 µM | RXF 393 > 100 µM

O=[N+]([O-])c1ccc(C2CC(c3ccc(NCc4nc5ccccc5[nH]4)cc3)=NO2)cc1 (stereo not drawn)
inactive: UACC-62 70.3 µM | NCI-H23 34.6 µM | HT-29 38.5 µM | RPMI-8226 18.5 µM | CCRF-CEM 15.6 µM | Malme-3M 34.4 µM | SNB-19 37.3 µM | OVCAR-3 3.56 µM | IGROV-1 75.7 µM | MOLT-4 6.92 µM | NCI-H522 27.9 µM | OVCAR-5 > 100 µM | A498 15.3 µM | COLO 205 > 100 µM | SK-MEL-28 > 100 µM | RXF 393 > 100 µM

N#CCCN(c1ccc(/C=N/c2ccccc2)cc1)S(=O)(=O)c1ccccc1
inactive: EKVX 35.7 µM | UACC-62 3.27 µM | NCI-H23 > 100 µM | HT-29 17 µM | UACC-257 > 100 µM | RPMI-8226 > 100 µM | CCRF-CEM > 100 µM | Malme-3M 41.4 µM | SNB-19 > 100 µM | OVCAR-3 > 100 µM | IGROV-1 > 100 µM | MOLT-4 > 100 µM | NCI-H522 > 100 µM | A498 > 100 µM | COLO 205 > 100 µM | SK-MEL-28 > 100 µM

CC(=O)OC1COC(N2C(=O)C(=O)c3c(C)cc(Cl)nc32)C(OC(C)=O)C1OC(C)=O (stereo not drawn)
inactive: EKVX > 100 µM | UACC-62 > 100 µM | NCI-H23 > 100 µM | HT-29 > 100 µM | UACC-257 > 100 µM | RPMI-8226 > 100 µM | CCRF-CEM > 100 µM | Malme-3M > 100 µM | SNB-19 > 100 µM | OVCAR-3 > 100 µM | IGROV-1 > 100 µM | MOLT-4 > 100 µM | OVCAR-5 > 100 µM | A498 > 100 µM | COLO 205 > 100 µM | SK-MEL-28 > 100 µM | RXF 393 > 100 µM

CCOC(=O)/N=C(\N)SCc1ccccc1
inactive: EKVX > 100 µM | UACC-62 > 100 µM | NCI-H23 > 100 µM | HT-29 > 100 µM | UACC-257 > 100 µM | RPMI-8226 34.3 µM | CCRF-CEM 24.7 µM | Malme-3M > 100 µM | SNB-19 > 100 µM | IGROV-1 > 100 µM | MOLT-4 26.5 µM | NCI-H522 > 100 µM | OVCAR-5 > 100 µM | A498 > 100 µM | SK-MEL-28 > 100 µM | RXF 393 > 100 µM

O=S(=O)(c1ccccc1)C1CN2OC1(S(=O)(=O)c1ccccc1)CC2c1ccc(Br)cc1 (stereo not drawn)
inactive: EKVX > 100 µM | UACC-62 > 100 µM | NCI-H23 > 100 µM | HT-29 > 100 µM | UACC-257 68.4 µM | RPMI-8226 > 100 µM | CCRF-CEM > 100 µM | Malme-3M > 100 µM | SNB-19 46.8 µM | OVCAR-3 84.7 µM | IGROV-1 > 100 µM | MOLT-4 > 100 µM | NCI-H522 34 µM | OVCAR-5 > 100 µM | A498 96.4 µM | SK-MEL-28 > 100 µM | RXF 393 13.2 µM

Cc1nn(-c2nc3ccccc3s2)c2c1C(=O)c1ccccc1-2
inactive: EKVX > 100 µM | UACC-62 > 100 µM | NCI-H23 > 100 µM | HT-29 > 100 µM | UACC-257 > 100 µM | RPMI-8226 > 100 µM | Malme-3M > 100 µM | SNB-19 > 100 µM | OVCAR-3 > 100 µM | IGROV-1 > 100 µM | NCI-H522 > 100 µM | OVCAR-5 > 100 µM | A498 > 100 µM | COLO 205 > 100 µM | SK-MEL-28 > 100 µM | RXF 393 62.5 µM

CCCCCCCCCCCCCC(=S)N/C=C/OC
inactive: EKVX 31 µM | UACC-62 20.7 µM | NCI-H23 28.2 µM | HT-29 21.3 µM | UACC-257 24.5 µM | RPMI-8226 23.6 µM | CCRF-CEM 21.4 µM | Malme-3M 26.6 µM | SNB-19 45.9 µM | OVCAR-3 23.6 µM | IGROV-1 41.3 µM | NCI-H522 20.3 µM | OVCAR-5 > 100 µM | A498 23.2 µM | COLO 205 27.1 µM | SK-MEL-28 41.7 µM | RXF 393 26.9 µM

COc1ccc(/C=C/c2cc(OC)c(O[Si](C)(C)C(C)(C)C)c(OC)c2)cc1
inactive: EKVX > 100 µM | UACC-62 75.2 µM | NCI-H23 17.2 µM | HT-29 > 100 µM | UACC-257 28.4 µM | RPMI-8226 45 µM | CCRF-CEM 58.7 µM | Malme-3M 24.2 µM | SNB-19 > 100 µM | OVCAR-3 > 100 µM | IGROV-1 > 100 µM | MOLT-4 63.4 µM | NCI-H522 > 100 µM | OVCAR-5 64.9 µM | A498 > 100 µM | COLO 205 > 100 µM | SK-MEL-28 6.24 µM

CCCCCCCCCCCOC(=S)NC(C)C
inactive: EKVX 20.9 µM | UACC-62 15.5 µM | NCI-H23 19.3 µM | HT-29 17.1 µM | UACC-257 19.1 µM | RPMI-8226 14 µM | CCRF-CEM 23.5 µM | Malme-3M 21.8 µM | SNB-19 29.6 µM | IGROV-1 20.6 µM | MOLT-4 16.7 µM | NCI-H522 18.2 µM | OVCAR-5 24.7 µM | A498 19.6 µM | SK-MEL-28 20.7 µM | RXF 393 19.8 µM

Cc1cc(C)nc(Nc2nc3cc([N+](=O)[O-])ccc3[nH]2)n1
inactive: EKVX > 100 µM | UACC-62 > 100 µM | NCI-H23 > 100 µM | HT-29 > 100 µM | UACC-257 > 100 µM | RPMI-8226 > 100 µM | CCRF-CEM > 100 µM | Malme-3M > 100 µM | SNB-19 > 100 µM | OVCAR-3 > 100 µM | IGROV-1 > 100 µM | MOLT-4 > 100 µM | NCI-H522 > 100 µM | OVCAR-5 > 100 µM | A498 > 100 µM | COLO 205 > 100 µM | SK-MEL-28 > 100 µM

COc1ccc(/C=C2\CN(C)Cc3c2nc(N)nc3-c2ccc(OC)cc2)cc1
inactive: EKVX 33.6 µM | UACC-62 87.1 µM | NCI-H23 > 100 µM | RPMI-8226 24.6 µM | CCRF-CEM 41.5 µM | Malme-3M 34.4 µM | SNB-19 > 100 µM | OVCAR-3 > 100 µM | IGROV-1 > 100 µM | MOLT-4 30.1 µM | NCI-H522 41.3 µM | OVCAR-5 > 100 µM | A498 > 100 µM | COLO 205 95.7 µM | SK-MEL-28 > 100 µM | RXF 393 > 100 µM
